How the values were obtained:
[1] = tested on: peptide-specific CTL precursors in PBMCs; test: Peptide-specific CTL precursors in pre- and post (6th)-vaccination PBMCs by IFN-γ-release assay; format: cell-based, human; settings: post (6th)-vaccination PBMC; positive cases/No. of tested cases (% positive)
[2] = Delayed type hypersensitivity (DTH) skin test; format: in vivo, human; settings: skin test site, first to 6th vaccination; positive cases/No. of tested cases (% positive)
[3] = tested on: peptide-reactive IgG; test: ELISA of peptide-reactive serum IgG in pre- and post-vaccination sera; format: in vivo, human; settings: post (3rd and 6th)-vaccination sera vs pre-vaccination; positive cases/No. of tested cases (% positive)

Sequence	Increased immune reactions to peptide: CTL activity [1]	Increased immune reactions to peptide: DTH response [2]	Increased immune reactions to peptide: IgG antibody [3]
AFLRHAAL [ART4 13]	0/1	0/4	0/2
LLQAEAPRL [SART3 302]	0/4	0/6	0/5
LIADFLSGL [UBE85]		0/2	
RIIYDRKFL [EIF51]	0/1	0/1	
DVWSFGILL [Ick422]			0/10
RLAEYQAYI [SART3 309]	0/6	0/9	
EYCLKFTKL [ART1 170]	0/7	0/9	
ASLDSDPWV [WHSC103]	0/6		
ILGELREKV [WHSC141]		0/8	
DFMIQGGDF [CypB91]	0/17		
KLKHYGPGWV [CypB129]	0/6		
DYPSLSATDI [ART4 75]			0/15
DYSARWNEI [SART2 93]		0/19	
ALVEFEDVL [HNRPL140]	0/5	0/5	0/5
KFHRVIKDF [CypB84]	0/3	0/4	
SYTRLFLIL [SART2 899]	0/7		
ILPRKHHRI [UBE208]	0/1	0/1	
KLVERLGAA [Ick246]		0/7	
